The record followed here is patent publication US8188117B2, “Piperidinyl-substituted isoquinolone derivatives” (Sanofi-Aventis, priority 2005, dated 2012).

The target in this assay is T1, ROCKII or ROKα (Homo sapiens, UniProt O75116).
T1 construct: purchased Upstate 14-451
In words: Determination of Rho kinase inhibition (γ33P ATP, Streptavidin Flash Plate). The conditions noted are these: ATP 40 μM, enzyme 0.1 ng/μl, 20 min at room temperature, tested as salt or free base obtained in the examples. Format: biochemical. How it is done: Determination of Rho Kinase Inhibition
To measure Rho-kinase inhibition, IC50 values were determined according to the following protocol:
Buffer: 25 mM Tris pH7.5; 0.02% BSA; 5% Glycerol; 0.008% Triton X100; 2% DMSO, 1 mM DTT; 1 mM MgCl2; 0.5 μCi/well γ^33P ATP
Enzyme: ROCKII or ROKα) (Upstate, Catalog #14-451 Lot #24880U) 0.1 ng/μl Final concentration of ATP in reaction mixture 40 μM
Biotinylated substrate, diluted to 0.25 μM with buffer described above (without ATP)
• 1. 10 μl Tris buffer (±Inhibitor) • 2. Add 30 μL of enzyme solution • 3. Start the reaction with 30 μL of mix substrate/ATP/ATP33 • 4. Incubate for 20 min at room temperature • 5. Stop reaction with 30 μL of 50 mM EDTA • 6. Transfer 50 μL of stopped solution to Streptavidin Flash Plate plus, Perkin Elmer, SMP 103A • 7. Incubate for 30 min at RT • 8. Wash 4 times with 300 μl of PBS/0.1% Tween 20 • 9. Radioactivity in the well was determined

T1 sequence (O75116 whole entry): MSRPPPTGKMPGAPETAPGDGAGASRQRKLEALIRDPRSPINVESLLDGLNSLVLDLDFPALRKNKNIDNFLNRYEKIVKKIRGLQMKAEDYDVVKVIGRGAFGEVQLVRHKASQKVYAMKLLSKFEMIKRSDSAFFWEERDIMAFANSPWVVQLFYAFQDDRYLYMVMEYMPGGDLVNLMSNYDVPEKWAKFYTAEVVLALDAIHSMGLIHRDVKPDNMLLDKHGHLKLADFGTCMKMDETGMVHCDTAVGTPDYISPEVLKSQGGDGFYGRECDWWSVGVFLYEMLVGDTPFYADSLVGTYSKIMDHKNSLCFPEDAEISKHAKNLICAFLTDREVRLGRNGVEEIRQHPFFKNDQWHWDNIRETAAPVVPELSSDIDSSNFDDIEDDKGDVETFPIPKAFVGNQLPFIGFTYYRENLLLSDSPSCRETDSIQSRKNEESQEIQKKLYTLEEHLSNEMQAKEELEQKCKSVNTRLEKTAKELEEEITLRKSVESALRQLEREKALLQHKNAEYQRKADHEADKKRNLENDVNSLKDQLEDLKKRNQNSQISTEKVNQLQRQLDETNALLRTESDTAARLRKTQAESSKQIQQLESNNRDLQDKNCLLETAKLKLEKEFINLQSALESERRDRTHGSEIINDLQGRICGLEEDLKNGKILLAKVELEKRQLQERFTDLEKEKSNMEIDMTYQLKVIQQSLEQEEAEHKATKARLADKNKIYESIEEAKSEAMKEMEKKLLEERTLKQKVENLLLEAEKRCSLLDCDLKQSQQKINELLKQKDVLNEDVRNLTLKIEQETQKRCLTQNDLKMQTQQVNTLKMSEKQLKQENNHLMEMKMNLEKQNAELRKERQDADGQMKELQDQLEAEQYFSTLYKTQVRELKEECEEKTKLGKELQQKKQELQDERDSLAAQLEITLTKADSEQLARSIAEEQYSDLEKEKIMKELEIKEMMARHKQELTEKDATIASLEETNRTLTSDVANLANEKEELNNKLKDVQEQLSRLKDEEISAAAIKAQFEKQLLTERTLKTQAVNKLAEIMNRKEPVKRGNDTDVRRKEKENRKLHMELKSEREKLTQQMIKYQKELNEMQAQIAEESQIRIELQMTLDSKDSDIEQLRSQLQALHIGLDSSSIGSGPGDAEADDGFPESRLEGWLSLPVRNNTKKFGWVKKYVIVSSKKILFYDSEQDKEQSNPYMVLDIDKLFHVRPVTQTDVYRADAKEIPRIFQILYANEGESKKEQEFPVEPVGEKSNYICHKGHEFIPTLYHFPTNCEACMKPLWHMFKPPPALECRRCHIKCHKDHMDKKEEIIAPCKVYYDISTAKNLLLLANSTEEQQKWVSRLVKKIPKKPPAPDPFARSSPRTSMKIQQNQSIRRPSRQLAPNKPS

`O=c1[nH]ccc2cc(OC3CCNCC3)ccc12` [Example 12, 6-(Piperidin-4-yloxy)-2H-isoquinolin-1-one]: the pIC50 result is on record as “+++++ (6.0 ≦ pIC50)”.
Under `O=c1[nH]ccc2cc(OC3CCNCC3)c(Br)cc12` [Example 17, 7-Bromo-6-(piperidin-4-yloxy)-2H-isoquinolin-1-one] stands “+++++ (6.0 ≦ pIC50)”; under `Cc1c[nH]c(=O)c2ccc(OC3CCNCC3)cc12` [Example 21], “+++++ (6.0 ≦ pIC50)”; under `O=c1[nH]ccc2cc(OC3CCNCC3)c(F)cc12` [Example 23], “+++++ (6.0 ≦ pIC50)”.
Take `COc1cc2c(=O)[nH]ccc2cc1OC1CCNCC1` [Example 25]: the pIC50 entry is given as “++++ (5.0 ≦ pIC50 < 6.0)”.
Under `Cc1cc2c(=O)[nH]cc(C)c2cc1OC1CCNCC1` [Example 28] stands “+++++ (6.0 ≦ pIC50)”; under `CCc1c[nH]c(=O)c2ccc(OC3CCNCC3)cc12` [Example 31], “+++++ (6.0 ≦ pIC50)”; under `CCc1c[nH]c(=O)c2cc(F)c(OC3CCNCC3)cc12` [Example 32], “++++ (5.0 ≦ pIC50 < 6.0)”.
Under `CN1CCC(Oc2ccc3c(=O)[nH]ccc3c2)CC1` [Example 40] stands “+++++ (6.0 ≦ pIC50)”.
For `O=c1[nH]ccc2cc(OC[C@H]3CCCNC3)ccc12` [Example 49], the pIC50 result is listed as “++++ (5.0 ≦ pIC50 < 6.0)”.
Under `O=c1[nH]cc(Br)c2cc(OC3CCNCC3)ccc12` [Example 52, 4-Bromo-6-(piperidin-4-yloxy)-2H-isoquinolin-1-one] stands “+++++ (6.0 ≦ pIC50)”.
Under `Oc1nccc2cc(OC3CCNCC3)c(Cl)cc12` [Example 54, 7-Chloro-6-(piperidin-4-yloxy)-2H-isoquinolin-1-one] stands “+++++ (6.0 ≦ pIC50)”; under `CC(C)N1CCC(Oc2cc3ccnc(O)c3cc2Cl)CC1` [Example 55, 7-Chloro-6-(1-isopropyl-piperidin-4-yloxy)-2H-isoquinolin-1-one], “+++++ (6.0 ≦ pIC50)”; under `O=c1[nH]ccc2cc(OC3CCN(CC4CC4)CC3)ccc12` [Example 58], “+++++ (6.0 ≦ pIC50)”.
For `CCCN1CCC(Oc2cc3cc[nH]c(=O)c3cc2F)CC1` [Example 101] the value was “+++++ (6.0 ≦ pIC50)”.
Turning to `Cc1cc2c(=O)[nH]ccc2cc1OC1CCN(CC2CCOC2)CC1` (centres unmarked) [Example 265], the pIC50 result was “+++++ (6.0 ≦ pIC50)”.
For `Cc1cc2c(=O)[nH]ccc2cc1OC1CCN(Cc2ccsc2)CC1` [Example 266] the value was “+++++ (6.0 ≦ pIC50)”; for `Cc1cc2c(=O)[nH]ccc2cc1OC1CCN(Cc2ccc(S(C)(=O)=O)cc2)CC1` [Example 275], “+++++ (6.0 ≦ pIC50)”.
Under `Cc1cc2c(=O)[nH]ccc2cc1OC1CCN(Cc2ccccn2)CC1` [Example 276] stands “+++++ (6.0 ≦ pIC50)”; under `O=c1[nH]ccc2c(Cl)c(OC3CCNCC3)ccc12` [Example 309, 5-Chloro-6-(piperidin-4-yloxy)-2H-isoquinolin-1-one], “+++++ (6.0 ≦ pIC50)”.
